According to paper PMC9233675, “Ru(II) photocages enable precise control over enzyme activity with red light” (Nature Communications, 2022):
pIC50: −log10 of the molar value. Several values for one entry are separate records, joined by “and”; a condition that tells them apart may be missing. Identical values can stand only once. Like-named read-outs stand apart in the source and are kept apart here.

How the values were obtained:
[1] = Cellular viability (resazurin to resorufin, 72 h); assay type: cell-based, human; conditions: human, parental HEK293 T-Rex cells, HEK293 T-Rex, after 72 hrs; for viability at 72 h, 1.11 μM: Log Conc 0.045757; for viability at 72 h, 3.33 μM: Log Conc 0.522879; for viability at 72 h, 30 μM: Log Conc 1.47712; for viability at 72 h, 0.37 μM: Log Conc -0.43136; for viability at 72 h, 0.123 μM: Log Conc -0.90849; for viability at 72 h, 0.0412 μM: Log Conc -1.38561; for viability at 72 h, 0.0137 μM: Log Conc -1.86273
Protocol: (§1) The cells were >70% viable at 72 h with 10 μM compound, as quantified by metabolically active cells determined by the conversion of resazurin to resorufin (Supplementary Figs. 18–20).
(§2) The parental HEK T-Rex cell line was maintained as above, in the absence of Zeocin. Compounds were serially diluted in media, and the cells were dosed from 0–30 μM compound, and then incubated at 37 °C (n = 3). […] The cells were incubated with the compound in the dark for 30 min prior to light exposure, using the same parameters as in the enzyme activity assay, and then treated as above.

HEK293 T-Rex cell line = experiment: Cellular viability (resazurin to resorufin, 72 h); assay type: cell-based, human; conditions: HEK293 T-Rex, after 72 hrs
Protocol: as §1, §2

[2] = Stability of compounds in human liver microsomes; conditions: for Remaining, % (NCF=60min): human liver microsomes, no co-factor (no NADPH); for CLint scaled / Remaining, % (T=60min) / half-life / microsomal CLint: human, liver microsomes
[3] = Stability of compounds in mouse liver microsomes; conditions: for Remaining, % (NCF=60min): mouse liver microsomes, no co-factor (no NADPH); for CLint scaled / Remaining, % (T=60min) / half-life / microsomal CLint: mouse, liver microsomes
CYP1B1 = biological target: T1, CYP1B1 (Homo sapiens, UniProt Q16678); experiment: In cell activity assay for CYP1B1 (7-ethoxyresorufin conversion, HEK293 T-Rex cells); conditions: for % Enzyme Activity: dark; for pIC50: n = 3
T1 sequence (Q16678 1-543): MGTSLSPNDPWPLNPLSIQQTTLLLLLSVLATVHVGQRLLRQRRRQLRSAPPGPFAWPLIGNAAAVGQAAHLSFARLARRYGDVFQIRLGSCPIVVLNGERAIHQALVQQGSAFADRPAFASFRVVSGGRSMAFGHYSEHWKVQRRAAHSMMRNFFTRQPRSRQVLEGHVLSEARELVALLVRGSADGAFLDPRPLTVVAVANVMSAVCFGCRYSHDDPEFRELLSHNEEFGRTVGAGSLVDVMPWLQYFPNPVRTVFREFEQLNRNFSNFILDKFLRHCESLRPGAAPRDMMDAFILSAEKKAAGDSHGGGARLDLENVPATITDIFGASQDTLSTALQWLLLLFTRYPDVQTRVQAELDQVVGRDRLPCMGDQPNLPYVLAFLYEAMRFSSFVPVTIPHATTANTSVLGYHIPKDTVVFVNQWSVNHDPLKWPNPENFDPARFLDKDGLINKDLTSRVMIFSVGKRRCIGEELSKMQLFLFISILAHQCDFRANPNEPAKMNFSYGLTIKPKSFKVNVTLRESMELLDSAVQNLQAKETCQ
From the text: To rigorously assess the activity of inhibitors under biologically relevant conditions, an assay was developed for screening of CYP1B1 activity in live cells.
A stable HEK cell line was created with CYP1B1 expression under the control of tetracycline to facilitate regulated and titratable expression (see the Methods section for more details). […] The fluorogenic substrate, 7-ethoxyresorufin (REE), is a validated substrate for both CYPs and was used in both assays. Cytochrome P450 oxidoreductase (POR) is the required reductase partner for CYPs, and was also overexpressed in these systems to improve catalytic efficiency and the resulting signal for the assay.
Cell lines were generated in the HEK293 T-Rex cell line. Following transfection, cells were selected with 500 μg/mL Zeocin, and 7.5 μg/mL Blasticidin to create a stable pool. Inducible expression of CYP and POR was confirmed by immunoblot. […] The lines were maintained with 250 μg/mL Zeocin and 7.5 μg/mL Blasticidin to ensure continued selective pressure.
Cell lines were seeded onto Geltrex coated 96-well plates at 40,000 cells/well, and grown overnight in DMEM media containing 1 μg/mL tetracycline. The media was then replaced with Opti-MEM supplemented with 2% FBS and 1 μg/mL tetracycline. Compounds were serially diluted in Opti-MEM supplemented with 2% FBS and 1 μg/mL tetracycline and an equal volume of compound added to the cells (n = 3). Following a 1 h incubation, resorufin ethyl ether (REE; for CYP1B1 and 1A1) or dibenzylfluorescein (DBF; for 19A1) was added to the cells for a total concentration of 5 μM for REE and 1 μM for DBF. […] Dose–response curves were generated in Prism and normalized using the no-compound control (set as 100% activity) and the no-cell control (set as 0% activity; this value in the raw data reflects the background fluorescence of the dye alone).
For the light-activated compounds, the experiment was modified as follows: Cells were seeded and grown overnight as described above. Media was replaced with L-15 containing 1 μg/mL tetracycline; L-15 media was used in place of opti-MEM™ to maintain CO2 outside the incubator, and to prevent cellular damage from light. Compounds were serially diluted in L-15 with 1 μg/mL tetracycline and added to the cells followed by a 1 h incubation. […] REE or DBF was added as described above.

[4] = Kinetic solubility by UV/Vis; assay type: physicochemical; conditions: Opti-MEM with 2% fetal bovine serum, room temperature, 3 hours
Protocol: Kinetic solubility was measured by UV/Vis. In this experiment, 14 μL of 10 mM DMSO stocks of complexes 4–6 were diluted in 700 μL of Opti-MEM™ with 2% fet al bovine serum and kept at room temperature for 3 hours. The solutions were then filtered using syringe-driven filters (FV12S) and concentrations were measured by UV/vis absorbance in a 96-well plate in triplicate. […]
4. Simulate in the NPT ensemble using a Berendsen thermostat and a Berendsen barostat with: […]
5. Simulate in the NPT ensemble using a Berendsen thermostat and a Berendsen barostat with: […]
6. Simulate in the NPT ensemble using a Berendsen thermostat and a Berendsen barostat with: […]

[5] = Irradiation-induced 1O2 production (Singlet Oxygen Sensor Green assay); assay type: physicochemical; conditions: sheet S27; triplicate columns; DMSO control about 0.9
From the text: Some Ru(II) complexes can generate singlet oxygen when photoexcited, a feature that has been applied to the selective photoinactivation of proteins. In this approach, the Ru(II) system is conjugated to a peptide that is a specific ligand for the protein target; binding of the peptide to the protein ensures close proximity of the Ru(II) center and thus, upon photoexcitation, the generation of a high local concentration of singlet oxygen. […] As very little of this reactive oxygen species was generated, inactivation of the CYP enzymes by this process appears unlikely.
Supplementary Figure 27. Determination of irradiation-induced 1O2 production with 660 nm light (1 hr = 58.7 J/cm2)
using the Singlet Oxygen Sensor Green assay. […]

[6] = assay type: physicochemical
From the text: Liver Weight Blood Flow Protein
(g/kg Body Weight) (mL/min/kg) (mg/g liver
Supplementary Table 7. Quantum yields of photosubstitution in different solvents.
Compound Φ(PS) 5% DMSO in H2Oa Φ(PS) Opti-MEMa Φ(PS) CH3OH […]
a Quantum yield for photosubstitution, ΦPS, in 5% DMSO in H2O and Opti-MEM, calculated by optical approach
(Fig. S8-10). b ΦPS in 5% DMSO in H2O, determined by HPLC approach. HPLC was used due to overlap in absorbance profiles for 6 and its photochemical product (Fig. S7).
Supplementary Table 8. Lipinski’s rule of five. […]
a log P was calculated by taking the logarithm of the ratio of the MLCT absorbance of each complex (4-6) in octanol to the corresponding absorbance in H2O.
1. Lameijer, L. N. et al. A Red-Light-Activated Ruthenium-Caged NAMPT Inhibitor Remains Phototoxic in Hypoxic Cancer Cells. Angew. Chem. Int. Ed. Engl. 56, 11549-11553,

Remaining, % (NCF=60min) [2] [%]	Compound	viability at 72 h, 1.11 μM [1] [%]	viability at 72 h, 3.33 μM [1] [%]	viability at 72 h, 30 μM [1] [%]	viability at 72 h, 0.37 μM [1] [%]	viability at 72 h, 0.123 μM [1] [%]	viability at 72 h, 0.0412 μM [1] [%]	viability at 72 h, 0.0137 μM [1] [%]	% Viable (HEK293 T-Rex cell line; Log Conc 0.045757)	% Viable (HEK293 T-Rex cell line; Log Conc 0.522879)	% Viable (HEK293 T-Rex cell line; Log Conc 1)	% Viable (HEK293 T-Rex cell line; Log Conc 1.47712)	% Viable (HEK293 T-Rex cell line; Log Conc -0.43136)	% Viable (HEK293 T-Rex cell line; Log Conc -0.90849)	% Viable (HEK293 T-Rex cell line; Log Conc -1.38561)	% Viable (HEK293 T-Rex cell line; Log Conc -1.86273)	CLint scaled [2] [mL/min/kg]	Remaining, % (T=60min) [2] [%]	half-life [2] [min]	microsomal CLint [2] [µL/min/mg]	further results
77.1	COc1cc(/C=C/c2ccc(OC)cc2OC)cc(OC)c1 [Compound 1, reference compound]	91.2	76.6	68.4	98.9	98.4	97.1	99.3	81.8963% and 90.1938%	71.5944% and 78.1539%	79.5836% and 68.5529%	62.2316% and 63.1567%	95.7862% and 89.6612%	94.8612% and 92.8008%	93.2073% and 97.8887%	106.593% and 96.3469%					
96.5	COc1ccc(/C=C/c2ccncn2)c(OC)c1 [Compound 2]	97.3	79.8	51.9	85.2	89.2	92	93.4	94.5248% and 84.1248%	84.1669% and 88.3577%	69.8564% and 78.2941%	51.1449% and 56.2608%	92.2822% and 92.2261%	98.0989% and 92.2261%	94.0623% and 98.2391%	98.7016% and 97.4401%	181	0.4	6.9	201	viability at 72 h, 10 μM ([1]; Log Conc 1): 64.5%; Remaining, % (NCF=60min) [3]: 111.5%; CLint scaled [3]: 3620 mL/min/kg; Remaining, % (T=60min) [3]: 0.1%; half-life [3]: 1.51 min; microsomal CLint [3]: 915 µL/min/mg; % Enzyme Activity (CYP1B1; CYP1B1, Log Conc 0.39794): -2.174% and -0.1456% and -1.116%; % Enzyme Activity (CYP1B1; CYP1B1, Log Conc 1): -3.921% and -4.348% and -1.514%; % Enzyme Activity (CYP1B1; CYP1B1, Log Conc -0.20412): 3.833% and 3.484% and 3.455%; % Enzyme Activity (CYP1B1; CYP1B1, Log Conc -0.80618): 23.2531% and 22.7484% and 23.8839%; % Enzyme Activity (CYP1B1; CYP1B1, Log Conc -1.40824): 62.2283% and 59.9476% and 62.7038%; % Enzyme Activity (CYP1B1; CYP1B1, Log Conc -2.0103): 95.9724% and 93.1289% and 92.7213%; % Enzyme Activity (CYP1B1; CYP1B1, Log Conc -2.61236): 93.2065% and 104.319% and 107.88%; % Enzyme Activity (CYP1B1; CYP1B1, Log Conc -3.21442): 101.359% and 108.531% and 103.62%; % Enzyme Activity (CYP1B1; CYP1B1, Log Conc -3.81648): 105.357% and 94.6429%; p IC50(uM) (CYP1B1; CYP1B1, negative log of the IC50 in μM): 1.119
	COc1ccc(/C=C/c2cc[n+]([Ru-4]345([n+]6ccccc6-c6cccc([n+]63)-c3cccc[n+]34)[n+]3c(cc(C(=O)[O-])c4ccccc43)-c3cc(C(=O)[O-])c4ccccc4[n+]35)cn2)c(OC)c1 [Compound 5]																				Kinetic solubility C average [4]: 112.2 µM; Kinetic solubility C1 ([4]; replicate 1): 113.3 µM; Kinetic solubility C2 ([4]; replicate 2): 110.0 µM; Kinetic solubility C3 ([4]; replicate 3): 113.0 µM; irradiation-induced 1O2 production (Singlet Oxygen Sensor Green signal, relative) [5]: 1.081 and 0.9897 and 0.9798; log P [6]: -0.5; pIC50 (CYP1B1; read-out: IC50 CYP1B1 Dark, Dark, conversion of 7-ethoxyresorufin (REE)): 5.76; pIC50 (CYP1B1; read-out: IC50 CYP1B1 Light, Light: 660 nm, 58.7 J/cm^2, REE): 7.77

Compound	Remaining, % (NCF=60min) [2] [%]	viability at 72 h, 1.11 μM [1] [%]	viability at 72 h, 3.33 μM [1] [%]	viability at 72 h, 30 μM [1] [%]	viability at 72 h, 0.37 μM [1] [%]	viability at 72 h, 0.123 μM [1] [%]	viability at 72 h, 0.0412 μM [1] [%]	viability at 72 h, 0.0137 μM [1] [%]	% Viable (HEK293 T-Rex cell line; Log Conc 0.045757)	% Viable (HEK293 T-Rex cell line; Log Conc 0.522879)	% Viable (HEK293 T-Rex cell line; Log Conc 1)	% Viable (HEK293 T-Rex cell line; Log Conc 1.47712)	% Viable (HEK293 T-Rex cell line; Log Conc -0.43136)	% Viable (HEK293 T-Rex cell line; Log Conc -0.90849)	% Viable (HEK293 T-Rex cell line; Log Conc -1.38561)	% Viable (HEK293 T-Rex cell line; Log Conc -1.86273)	CLint scaled [2] [mL/min/kg]	Remaining, % (T=60min) [2] [%]	half-life [2] [min]	microsomal CLint [2] [µL/min/mg]	further results
COc1ccc(C=Cc2ccncc2)c(OC)c1 [Compound 3]	92.1	96.6		140	92.3	93.3	90.3	103	97.2552% and 97.1817%	116.518% and 106.568% and 128.158%	141.882% and 148.217% and 166.23%	142.875% and 157.603%	103.982% and 85.443%	97.2307% and 93.9713%	97.0469% and 84.1196%	98.309% and 101.936%	155	0.6	8.07	172	Remaining, % (NCF=60min) [3]: 137.9%; CLint scaled [3]: 1900 mL/min/kg; Remaining, % (T=60min) [3]: 0.1%; half-life [3]: 2.89 min; microsomal CLint [3]: 480 µL/min/mg; % Enzyme Activity (CYP1B1; CYP1B1, Log Conc 0.39794): -5.843% and -5.409% and -4.402%; % Enzyme Activity (CYP1B1; CYP1B1, Log Conc 1): -2.892% and -0.02892% and -1.938%; % Enzyme Activity (CYP1B1; CYP1B1, Log Conc -0.20412): -3.135% and -2.441% and -3.396%; % Enzyme Activity (CYP1B1; CYP1B1, Log Conc -0.80618): 0.2661% and -0.4628% and 0.4396%; % Enzyme Activity (CYP1B1; CYP1B1, Log Conc -1.40824): 4.865% and 3.164% and 4.917%; % Enzyme Activity (CYP1B1; CYP1B1, Log Conc -2.0103): 14.3229% and 13.9758% and 14.3403%; % Enzyme Activity (CYP1B1; CYP1B1, Log Conc -2.61236): 26.2625% and 28.9697% and 28.1888%; % Enzyme Activity (CYP1B1; CYP1B1, Log Conc -3.21442): 46.5321% and 40.302% and 39.9202%; % Enzyme Activity (CYP1B1; CYP1B1, Log Conc -3.81648): 56.0248% and 55.8165% and 54.8794%; % Enzyme Activity (CYP1B1; CYP1B1, Log Conc -4.41854): 73.8474% and 69.3527% and 65.1356%; % Enzyme Activity (CYP1B1; CYP1B1, Log Conc -5.0206): 73.3268% and 74.7498% and 84.3119%; % Enzyme Activity (CYP1B1; CYP1B1, Log Conc -5.62266): 93.7872% and 77.0753% and 77.7868%; % Enzyme Activity (CYP1B1; CYP1B1, Log Conc -6.22472): 92.9716% and 93.6311% and 94.2558%; % Enzyme Activity (CYP1B1; CYP1B1, Log Conc -6.82678): 109.545% and 110.274% and 80.1816%
